We go through 2 compounds from patent US20180199572A1, “Herbicidal Composition Comprising Cinmethylin and Metolachlor or S-Metolachlor” (BASF Agro B.V., priority 2015, published 2018).

Holding throughout (experiment): Greenhouse pre-emergence herbicidal activity
Common to all, as to assay type: in vivo
Holding throughout (settings): 20 DAT

For assay [1], the system named is Abutilon theophrasti (ABUTH).
The subject of assay [2] is Polygonum convolvulus (POLCO).
The subject of assay [3] is Anthemis arvensis (ANTAR).
The subject of assay [4] is Alopecurus myosuroides (ALOMY).
Assay [5] concerns Stellaria media (STEME).
Assay [6] has as its system Lolium multiflorum (LOLMU).
In assay [7] the test system is Chenopodium album (CHEAL).
Assay [8] relates to Avena fatua (AVEFA).
Assay [9] deals with Setaria viridis (SETVI).
Setting [10] is: solo S-metolachlor, use rate 62.5 g ai/ha.
Setting [11] is: solo S-metolachlor, use rate 125 g ai/ha.
The mark [12] stands for this setting: solo S-metolachlor, use rate 250 g ai/ha.
The mark [13] stands for this setting: solo herbicide A, use rate 31.25 g ai/ha.
The mark [14] stands for this setting: solo herbicide A, use rate 62.5 g ai/ha.
Where [15] appears, read: solo herbicide A, use rate 125 g ai/ha.

Regarding `CCc1cccc(C)c1N(C(=O)CCl)[C@@H](C)COC` [S-metolachlor], the “herbicidal activity (%)” value in assay [1] (setting [10]) is 0%; in assay [1] (setting [11]), 0%; in assay [2] (setting [12]), 25%; in assay [2] (solo S-metolachlor, use rate 500 g ai/ha), 20%; in [3] (setting [10]), 0%; in assay [3] (setting [11]) it was 0%. Further, the “herbicidal activity (%)” value in [3] (setting [12]) is 25%; in [4] (setting [11]), 40%; in [4] (setting [12]), 50%; in assay [5] (setting [11]), 35%; in [5] (setting [12]) it was 65%; in assay [6] (setting [12]) it was 60%. The “herbicidal activity (%)” value in assay [7] (setting [10]) came out at 0%; in [8] (setting [12]), 25%; in assay [9] (setting [10]), 80%.

Consider “(±)-2-exo-(2-Methylbenzyloxy)-1-methyl-4-isopropyl-7-oxabicyclo[2.2.1]heptane [herbicide A]”, for which the “herbicidal activity (%)” value in [1] (setting [13]) is 30%; in [1] (setting [14]) it was 60%; in assay [2] (setting [15]), 0%; in [2] (solo herbicide A, use rate 250 g ai/ha) it was 15%; in [3] (setting [13]), 0%; in assay [3] (setting [14]), 0%. For the same compound, the “herbicidal activity (%)” value in [3] (setting [15]) stood at 0%; in assay [4] (setting [14]) it was 98%; in assay [4] (setting [15]) it was 98%; in assay [5] (setting [14]), 30%; in assay [5] (setting [15]), 40%; in assay [6] (setting [15]) it was 85%. Further, the “herbicidal activity (%)” value in [7] (setting [13]) was determined as 40%; in assay [8] (setting [15]) it was 25%; in assay [9] (setting [13]) it was 90%.
